Experimental data published in PubChem BioAssay (NCI).
“And” between values parts separate entries of the source, which are not always exact repeats. Identical values can stand only once.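 In this assay, cells in 96-well plates receive the compound at five concentrations for 48 hours. Endpoints are linearly interpolated between the surrounding concentrations. GI50: concentration for 50% inhibition of growth. TGI is the concentration that stops growth completely.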

Tests used:
Assay in all cases: DTP human tumour cell line panel, 48 h
HCT-15 colon = test system: HCT-15 colon
IGROV1 ovarian = test system: IGROV1 ovarian
KM12 colon = test system: KM12 colon
M14 melanoma = test system: M14 melanoma
OVCAR-4 ovarian = test system: OVCAR-4 ovarian
OVCAR-8 ovarian = test system: OVCAR-8 ovarian
PC-3 prostate = test system: PC-3 prostate
SF-295 CNS = test system: SF-295 CNS
SF-539 CNS = test system: SF-539 CNS
SR leukemia = test system: SR leukemia

Row | Structure (SMILES) | TGI (HCT-15 colon) | TGI (IGROV1 ovarian) | TGI (KM12 colon) | TGI (M14 melanoma) | TGI (OVCAR-4 ovarian) | TGI (OVCAR-8 ovarian) | TGI (PC-3 prostate) | TGI (SF-295 CNS) | TGI (SF-539 CNS) | TGI (SR leukemia) | GI50 (HCT-15 colon) | GI50 (IGROV1 ovarian) | GI50 (KM12 colon) | GI50 (M14 melanoma) | GI50 (OVCAR-4 ovarian) | GI50 (OVCAR-8 ovarian) | GI50 (PC-3 prostate) | GI50 (SF-295 CNS) | GI50 (SF-539 CNS) | GI50 (SR leukemia)
1 | Nc1nc(N)c(CCCCc2ccc([N+](=O)[O-])cc2)c(N)n1 | > 100 µM | > 100 µM | > 100 µM | > 100 µM | > 100 µM | > 100 µM | > 100 µM | > 100 µM | > 100 µM | > 100 µM |  |  |  |  |  |  |  |  |  | 
2 | O=C(Nc1c[nH]c(=O)[nH]c1=O)Oc1ccccc1 | > 100 µM | > 100 µM | > 100 µM | > 100 µM | > 100 µM | > 100 µM | > 100 µM | > 100 µM | > 100 µM | > 100 µM |  |  |  |  |  |  |  |  |  | 
3 | CCOC(=O)Nc1cc2c(c(N)n1)N=C(c1ccc(Cl)cc1Cl)CN2 | 9.02 µM | 34.3 µM | 2.83 µM | 43.4 µM | 39.7 µM | 37.2 µM | 14.9 µM | 0.0108 µM | 0.0475 µM | > 100 µM |  |  |  |  |  |  |  |  |  | 
4 | COc1cc(F)c(F)c(Nc2ccc(I)cc2F)c1NS(=O)(=O)C1(CC(O)CO)CC1 (stereo unspecified) | 47.4 µM | 34.4 µM | 30.9 µM | 15.5 µM | > 91.9 µM | 61 µM | > 57.5 µM | 32.5 µM | 33.8 µM | > 69.4 µM | 14.6 µM | 10.4 µM | 13.3 µM | 3040 nM | 16.6 µM | 18700 nM | 15.1 µM | 15000 nM | 15800 nM | 15700 nM
5 | ClC/C=C/CSc1ncnc2nc[nH]c12 | > 100 µM | > 100 µM | > 100 µM | > 100 µM | > 100 µM | > 100 µM | > 100 µM | > 100 µM | > 100 µM | > 100 µM | > 100 µM | > 100 µM | > 100 µM | > 100000 nM | > 100 µM | > 100000 nM | > 100 µM | > 100000 nM | > 100000 nM | > 100000 nM
6 | N#Cc1cnn(C(=O)c2nn(-c3ccc(Cl)cc3)cc2O)c1N | 13.1 µM | 12.7 µM | 22.2 µM | 8.01 µM | 37.4 µM | > 44.4 µM | 7.28 µM | 0.646 µM | 7.85 µM | 0.983 µM | 0.338 µM | 0.365 µM | 0.374 µM | 462 nM | 0.456 µM | 474 nM | 0.322 µM | 163 nM | 323 nM | 278 nM
7 | COc1cc2c(cc1O)CCN[C@@]21CS[C@H]2c3c(OC(C)=O)c(C)c4c(c3C(COC1=O)N1C2C2NC(Cc3cc(C)c(OC)c(O)c32)[C@@H]1O)OCO4 (stereo partly specified) |  | 10.5 µM and 0.000362 µg/mL and 0.0045 µg/mL | 11.3 µM | < 10 nM and 1.8e-07 µg/mL and 0.0045 µg/mL | < 10 nM and 0.0045 µg/mL | < 10 nM and 0.472 µg/mL | < 0.01 µM | 1.09 µM and 5.17 µg/mL | < 10 nM and 0.0045 µg/mL |  | 0.00461 ng/mL and 4.5 ng/mL | 0.000551 ng/mL and 4.5 ng/mL |  | 4.5 ng/mL | 4.5 ng/mL | 4.5 ng/mL |  | 4.5 ng/mL | 4.5 ng/mL | 4.5 ng/mL
8 | COC(=O)c1sc(-n2cnc3cc(OC)c(OC)cc32)cc1OCc1ccccc1C(F)(F)F | > 25 µM | > 25 µM | > 25 µM | > 25 µM | > 25 µM | > 25 µM | > 25 µM | > 25 µM | > 25 µM | > 25 µM | > 25 µM | > 25 µM | > 25 µM | > 25000 nM | > 25 µM | 15300 nM | > 25 µM | > 23600 nM | > 25000 nM | > 25000 nM
9 | COc1cc(C2c3cc4c(cc3[C@@H](Nc3ccc(F)cc3)C3COC(=O)[C@H]23)OCO4)cc(OC)c1O (stereo partly specified) | 26.1 µM | 42.2 µM | 13.5 µM | 17.4 µM | 49.2 µM | 15.6 µM | 23.4 µM | 7.26 µM | 6.02 µM | 0.612 µM and 4.27 µM |  |  |  | 795 nM |  | 886 nM |  | 548 nM | 708 nM | 56.7 nM
10 | COc1ccc([C@@H]2[C@@H](Cl)C(=O)N2c2cc(OC)c(OC)c(OC)c2)cc1C | > 100 µM | 72.4 µM | 17.1 µM | 17.5 µM | > 100 µM | 77.5 µM | > 100 µM | 39.7 µM | 14.6 µM | 54.4 µM | 0.0535 µM | 0.0849 µM | 0.0419 µM | 30.2 nM | 0.769 µM | 50.4 nM | 0.0633 µM | 50.1 nM | 29.3 nM | 39.7 nM
